# Literature values in patent publication US20090162488A1, “BEVERAGE PRODUCTS AND FLAVOR SYSTEMS HAVING A NON-SWEETENING AMOUNT OF MONATIN” (The Concentrate Manufacturing Company of Ireland, priority 2007, published 2009).
# Peptide text beside a SMILES is read from it.
# Conditions: for potency figures: times as sweet as sugar: commonly accepted potency figures, weight basis versus sugar
Structure (SMILES),potency figures: times as sweet as sugar,"sweetness potency (versus sugar (i.e., sucrose))"
CC1=CC(=O)NS(=O)(=O)O1 [Acesulfame-K],200 times as sweet as sugar,–
C[C@@H](NC(=O)[C@@H](N)CC(=O)O)C(=O)NC1C(C)(C)SC1(C)C [Alitame],"2,000 times as sweet as sugar",–
COC(=O)[C@H](Cc1ccccc1)NC(=O)[C@@H](N)CC(=O)O [Aspartame] (H-Asp-Phe-OMe),200 times as sweet as sugar,–
CC1(C)[C@@H](O[C@H]2O[C@H](C(=O)O)[C@@H](O)[C@H](O)[C@H]2O[C@@H]2O[C@H](C(=O)O)[C@@H](O)[C@H](O)[C@H]2O)CC[C@]2(C)[C@H]3C(=O)C=C4[C@@H]5C[C@@](C)(C(=O)O)CC[C@]5(C)CC[C@@]4(C)[C@]3(C)CC[C@@H]12 [Glycyrrhizin],30-50 times as sweet as sugar,–
C[C@H](CC[C@@H](O[C@@H]1O[C@H](CO[C@@H]2O[C@H](CO)[C@@H](O)[C@H](O)[C@H]2O)[C@@H](O)[C@H](O)[C@H]1O[C@@H]1O[C@H](CO)[C@@H](O)[C@H](O)[C@H]1O)C(C)(C)O)[C@H]1CC[C@@]2(C)[C@@H]3CC=C4[C@@H](CC[C@H](O[C@@H]5O[C@H](CO[C@@H]6O[C@H](CO)[C@@H](O)[C@H](O)[C@H]6O)[C@@H](O)[C@H](O)[C@H]5O)C4(C)C)[C@]3(C)[C@H](O)C[C@]12C [Mogroside V],100-300 times as sweet as sugar,–
"NC(CC(O)(Cc1c[nH]c2ccccc12)C(=O)O)C(=O)O (stereo not drawn) [Monatin, 2-hydroxy-2-(indol-3-lymethyl)-4-aminoglutaric acid]",–,about 2000 times as sweet as sugar
COc1ccc(CCC(=O)c2c(O)cc(O[C@@H]3O[C@H](CO)[C@@H](O)[C@H](O)[C@H]3O[C@@H]3O[C@@H](C)[C@H](O)[C@@H](O)[C@H]3O)cc2O)cc1O [Neohesperidin dihydrochalcone],300 times as sweet as sugar,–
COC(=O)[C@H](Cc1ccccc1)NC(=O)[C@H](CC(=O)O)NCCC(C)(C)C [Neotame],"8,000 times as sweet as sugar",–
C=C1C[C@@]23CC[C@H]4[C@@](C)(CCC[C@@]4(C)C(=O)O[C@@H]4O[C@H](CO)[C@@H](O)[C@H](O)[C@H]4O)[C@@H]2CC[C@]1(O[C@@H]1O[C@H](CO)[C@@H](O)[C@H](O[C@@H]2O[C@H](CO)[C@@H](O)[C@H](O)[C@H]2O)[C@H]1O[C@@H]1O[C@H](CO)[C@@H](O)[C@H](O)[C@H]1O)C3 [Rebaudioside A],150-300 times as sweet as sugar,–
O=C1NS(=O)(=O)c2ccccc21 [Saccharin],300 times as sweet as sugar,–
C=C1C[C@@]23CC[C@H]4[C@@](C)(CCC[C@@]4(C)C(=O)O[C@@H]4O[C@H](CO)[C@@H](O)[C@H](O)[C@H]4O)[C@@H]2CC[C@]1(O[C@@H]1O[C@H](CO)[C@@H](O)[C@H](O)[C@H]1O[C@@H]1O[C@H](CO)[C@@H](O)[C@H](O)[C@H]1O)C3 [Stevioside],100-250 times as sweet as sugar,–
OC[C@H]1O[C@H](O[C@]2(CCl)O[C@H](CCl)[C@@H](O)[C@@H]2O)[C@H](O)[C@@H](O)[C@H]1Cl [Sucralose],600 times as sweet as sugar,–
